This note sets out measurements from patent US11078194B2, “Salt form and crystal form serving as FGFR and VEGFR inhibitor compounds, and preparation method therefor” (HARBIN ZHENBAO PHARMACEUTICAL CO., LTD., priority 2017, dated 2021).

One assay concerns the target T1, FGFR1 (Homo sapiens, UniProt P11362).
T1 construct: purchased Invitrogen PV4105
Description: Z'-LYTE Detection Kinase Assay, in vitro enzyme activity test. The class given is biochemical. The note with it: 0.6 nM FGFR1, 10 μm ATP, 23° C., 60 minutes. On the procedure:
The enzyme activity was detected by Z′-LYTE™ Detection Kinase Assay, and the IC50 value of the compound was used as an indicator to evaluate the inhibitory effect of the compound against FGFR1.
FGFR1 (Invitrogen #PV4105)
Reaction buffer solution: 50 mM Hepes (pH 7.5), 10 mM MgCl2, 1 mM EGTA, 0.01% Brij-35, 1 mM DTT, 2 mM MnCl2;
0.6 nM FGFR1, 2 μm Tyr^4 peptide and 10 μm ATP in reaction buffer solution (50 mM Hepes, pH 7.5, 10 mM MgCl2, 0.01% BRU-35, 1 mM EGTA, 4 mM MnCl2, 2 mM DTT).
a. Diluting the compound with DMSO to 10 mM, 3-fold dilution, 11 gradients, two duplicate wells;
b. Transferring compound diluted with a ratio of 1:25 to the middle plate at Bravo Automatic Liquid Station. Then transferring 2.5 uL to the reaction plate to ensure the final DMSO concentration to be 1%;
c. Transferring 5 μL enzyme/substrate buffer to each well;
d. Adding ATP solution to each well sequentially with Multidrop liquid workstation;
e. Centrifuging at 1000 rpm for 1 minute;
f. Placing the reaction plate in a 23° C. incubator, and allowing to react for 60 minutes.
a. Preparing a mixture of Development regent B and Development Buffer with a ratio of 1:128;
b. Adding 5 uL to each well and centrifuging at 1000 rpm for 1 minute;
c. Placing the reaction plate into an incubator (23° C.) for 90 minutes after centrifugation, taking it out, and reading it in the Envision (Perkin Elmer) plate reader […]

The test system of assay [1] is FGFR1/2 Highly Expressed Patient-derived Liver Tumor Transplantation Model. Description: Tumor growth inhibition (TGI) analysis. The format is in vivo, mice. The note with it: 5 mg/kg, BID. On the procedure: The evolutionary growth potential of tumors was evaluated by the relationship between tumor volume and time. The long axis (L) and short axis (W) of the subcutaneous tumor were measured twice a week by the caliper and the tumor volume (TV) was calculated by the formula ((L×W^2)/2). TGI was calculated from the difference between the median tumor volume in the solvent group mice and the median tumor volume in the drug group mice, expressed as a percentage counting for the median tumor volume in the solvent control group, calculated by the following formula: % TGI=((median tumor volume (control)−median tumor volume (dosing group))/median tumor volume (control group))×100
The original statistical analysis was done by repeating the analysis of variance, followed by post-hoc Scheffe's test method for multiple comparisons, with solvent alone (0.5% methylcellulose+0.2% Tween in water) as negative control.

Structures are written as SMILES.

T1 sequence (P11362 22-822): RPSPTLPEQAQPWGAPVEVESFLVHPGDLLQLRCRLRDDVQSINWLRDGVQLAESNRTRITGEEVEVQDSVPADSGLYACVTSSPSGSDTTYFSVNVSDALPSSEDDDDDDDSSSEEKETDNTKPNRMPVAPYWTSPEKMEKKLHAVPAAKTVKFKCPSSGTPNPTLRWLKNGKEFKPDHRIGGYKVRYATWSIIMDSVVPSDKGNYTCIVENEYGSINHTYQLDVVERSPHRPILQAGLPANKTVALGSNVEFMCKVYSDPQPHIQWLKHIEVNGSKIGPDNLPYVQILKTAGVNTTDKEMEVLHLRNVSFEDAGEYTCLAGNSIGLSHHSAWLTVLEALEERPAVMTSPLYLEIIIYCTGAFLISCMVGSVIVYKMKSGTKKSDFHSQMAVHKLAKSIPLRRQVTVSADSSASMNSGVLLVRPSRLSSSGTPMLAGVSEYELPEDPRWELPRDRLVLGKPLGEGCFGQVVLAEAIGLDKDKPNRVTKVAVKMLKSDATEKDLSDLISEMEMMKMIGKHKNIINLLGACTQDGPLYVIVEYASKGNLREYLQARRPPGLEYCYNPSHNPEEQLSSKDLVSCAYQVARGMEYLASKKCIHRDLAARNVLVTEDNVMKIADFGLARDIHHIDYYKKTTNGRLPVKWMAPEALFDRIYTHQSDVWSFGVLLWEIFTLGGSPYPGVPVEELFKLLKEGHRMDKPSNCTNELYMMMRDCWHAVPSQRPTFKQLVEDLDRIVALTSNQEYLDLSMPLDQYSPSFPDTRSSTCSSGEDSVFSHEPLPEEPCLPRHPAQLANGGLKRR

On to `C[C@@H](Oc1ccc2[nH]nc(/C=C(\F)c3ccc(CNC4CCOCC4)nc3)c2c1)c1c(Cl)cncc1Cl` [Embodiment 1], for which the IC50 against FGFR1 was at most 10 nM. In addition, in assay [1], the “TGI % (last administration)” value turned out to be 85%.

In general, IC50 refers to the midpoint of a concentration-inhibition curve. A lower IC50 goes with greater potency in that assay.
